Read-outs that look alike come from different tables or passages of the source.

Among the data in US20060116390A1, “Hepatitis c virus inhibitors” (priority 2003, published 2006) are IC50 values, retold here.

The subject of the assay is HCV proteins in Rep5.1 cells (replicon cell line). The experiment in a line: Inhibitory activity of HCV: cell-based ELISA in replicon cell line Rep5.1 (decrease of HCV proteins). Particulars: Hepatitis C virus, 72 h, Rep5.1 cells, 72 hours with drug. Further details: species or system hepatitis C virus. The essentials:
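Rep5.1 replicon cells (5000/well, DMEM-10 with 500 μg/ml G418) were given serially diluted drug 4 h after seeding. After 72 h, cells were fixed in methanol/acetone and HCV proteins detected by cell-based ELISA using replicon-specific patient plasma antibodies. IC50 is the concentration giving 50% protein decrease versus the no-drug control.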
On the technique in general: In an ELISA, binding on a coated surface is turned into a signal by an enzyme label.

[1] abbreviates: concentration at which 50% of HCV proteins was decreased, Table 2, read-out: IC50.
Where [2] appears, read: decrease of HCV proteins measured by HCV antibody, Table 1, read-out: Level (IC50 values classified).

Broadly, the IC50 is the midpoint of a concentration-inhibition curve. In the case of `CCCC1=C(C(=O)OCc2ccccc2)CNC(=S)N1` [Compound 25, 6-propyl-2-thioxo-1,2,3,4-tetrahydro-pyrimidine-5-carboxylic acid benzyl ester], the IC50 runs as follows: under setting [1], 2 µM; under setting [2], 1 to 10 µM.
Taken in the same sequence, the figures for `CC1=C(C(=O)OC(C)(C)c2ccccc2)CNC(=S)N1` [Compound 27, 6-methyl-2-thioxo-1,2,3,4-tetrahydro-pyrimidine-5-carboxylic acid 1-methyl-1-phenyl-ethyl ester] were 47 µM and greater than 20 µM.
Consider `CC1=C(C(=O)OCC2CCCCC2)CNC(=S)N1` [Compound 29, 6-methyl-2-thioxo-1,2,3,4-tetrahydro-pyrimidine-5-carboxylic acid cyclohexylmethyl ester], for which the IC50 under setting [1] amounted to 0.3 µM and the IC50 under setting [2] is less than 1 µM.
Take `CCCCCCOC(=O)C1=C(C)NC(=S)NC1` [Compound 30, 6-methyl-2-thioxo-1,2,3,4-tetrahydro-pyrimidine-5-carboxylic acid hexyl ester]: the IC50 is, setting by setting: under setting [1], 0.1 µM; under setting [2], less than 1 µM.
For `CC1=C(C(=O)OCCCCCCCCc2ccccc2)CNC(=S)N1` [Compound 33, 6-methyl-2-thioxo-1,2,3,4-tetrahydro-pyrimidine-5-carboxylic acid 8-phenyl-octyl ester] the same measures were less than 0.5 µM and less than 1 µM.
Regarding `CC1=C(C(=O)OCCc2ccccc2)CNC(=S)N1` [Compound 34, 6-methyl-2-thioxo-1,2,3,4-tetrahydro-pyrimidine-5-carboxylic acid phenethyl ester], the IC50 runs as follows: under setting [1], 2 µM; under setting [2], 1 to 10 µM.
For `CCCCCCC(C)OC(=O)C1=C(C)NC(=S)NC1` (stereo not shown) [Compound 35, 6-methyl-2-thioxo-1,2,3,4-tetrahydro-pyrimidine-5-carboxylic acid 1-methyl-heptyl ester] the same measures were less than 0.5 µM and less than 1 µM.
For `COc1ccc(CCCOC(=O)C2=C(C)NC(=S)NC2)cc1OC` [Compound 36, 6-methyl-2-thioxo-1,2,3,4-tetrahydro-pyrimidine-5-carboxylic acid 3-(3,4-dimethoxy-phenyl)-propyl ester], the IC50 under setting [1] was 84 µM and the IC50 under setting [2] is greater than 20 µM.
As for `CC1=C(C(=O)OC2CCCCC2)CNC(=S)N1` [Compound 37, 6-methyl-2-thioxo-1,2,3,4-tetrahydro-pyrimidine-5-carboxylic acid cyclohexyl ester], the IC50 was 4 µM under setting [1] and 1 to 10 µM under setting [2].
For `CCCCC(C)OC(=O)C1=C(C)NC(=S)NC1` (stereo not shown) [Compound 39, 6-methyl-2-thioxo-1,2,3,4-tetrahydro-pyrimidine-5-carboxylic acid 1-methyl-pentyl ester] the same measures were 0.5 µM and less than 1 µM.
Taken in the same sequence, the figures for `COc1ccc(COC(=O)C2=C(C)NC(=S)NC2)cc1OC` [Compound 40, 6-methyl-2-thioxo-1,2,3,4-tetrahydro-pyrimidine-5-carboxylic acid 3,4-dimethoxy-benzyl ester] were 92 µM and greater than 20 µM.
For the molecule `CC1=C(C(=O)OCc2ccc(Cl)cc2Cl)CNC(=S)N1` [Compound 41, 6-methyl-2-thioxo-1,2,3,4-tetrahydro-pyrimidine-5-carboxylic acid 2,4-dichloro-benzyl ester], the IC50 under setting [1] is less than 0.4 µM and the IC50 under setting [2] was less than 1 µM.
For `CC1=C(C(=O)OC(C)CCc2ccccc2)CNC(=S)N1` (stereo not shown) [Compound 42, 6-methyl-2-thioxo-1,2,3,4-tetrahydro-pyrimidine-5-carboxylic acid 1-methyl-3-phenyl-propyl ester] the same measures were 0.5 µM and less than 1 µM.
Turning to `CC1=C(C(=O)OCc2ccc(Cl)cc2)CNC(=S)N1` [Compound 43, 6-methyl-2-thioxo-1,2,3,4-tetrahydro-pyrimidine-5-carboxylic acid 4-chloro-benzyl ester], the IC50 under setting [1] was less than 0.4 µM and the 50% inhibitory concentration (IC50) under setting [2] is less than 1 µM.
